Measurements as given in US20130115293A1, “Therapeutic Polymeric Nanoparticles Comprising Corticosteroids and Methods of Making and Using Same” (priority 2009, published 2013).
“And” between values parts separate entries of the source, which are not always exact repeats. Equal values may be shown once. Read-outs that look alike come from different tables or passages of the source.

What was measured:
[1] = Rat study: pharmacokinetics, plasma levels by LCMS; format: in vivo, Rats (male Sprague Dawley); details: single intravenous dose 0.5 mg/kg; for AUC(0-inf) / clearance / Cmax / Vd / half-life: male, Sprague Dawley, iv, 0.5 mg/kg
Protocol: Rats (male Sprague Dawley, approximately 300 g with jugular cannulae) were given a single intravenous dose of 0.5 mg/kg of budesonide or passively targeted nanoparticles (PTNP) encapsulating budesonide (prepared as in Example 7) at time=0. At various times after dosing, blood samples were collected from the jugular cannulae into tubes containing lithium heparin, and plasma was prepared. Plasma levels were determined by extraction of the budesonide from plasma followed by LCMS analysis.

indomethacin-induced IBD = assay: Rat model of inflammatory bowel disease (indomethacin induced); format: in vivo, rats; details: for intestinal score decrease towards normal: days -1 to 3, scored day 4; for small intestine weight decrease toward normal: days -1 to 3, weighed day 4
Protocol: Budesonide and Budesonide PTNP were compared in a model of inflammatory bowel disease (IBD) as an efficacy model of inflammation. In this model, female rats were given two subcutaneous doses of 8 mg/kg indomethacin at 24 hour intervals to induce lesions resembling those occurring in Crohn's disease in the small intestine. Intravenous daily treatment with vehicle, budesonide (0.02, 0.2 or 2 mg/kg) or budesonide PTNP (0.02, 0.2 or 2 mg/kg) or oral daily treatment with Dexamethasone (0.1 mg/kg) was initiated one day before indomethacin treatment (day −1) and continued for 5 total days (days −1 to 3). Animals were euthanized on day 4, and a 10 cm area at risk in the small intestine was scored for gross pathology and weighed.
Using a disease scoring system in which a score of 0 is normal, and a score of 5 indicates death due to IBD symptoms, normal rats have an average score of 0, and an average intestinal weight of 0.488 g.

[2] = Solubility of drug in beta cyclodextrin (BCD) release medium; format: physicochemical
Protocol: For in vitro release studies using the procedure of Example 3, beta cyclodextrin (BCD) was evaluated as a solubilizer for maintaining sink conditions during the release of ciclesonide into the release medium.

SMILES: CCCC1O[C@@H]2C[C@H]3[C@@H]4CCC5=CC(=O)C=C[C@]5(C)[C@H]4[C@@H](O)C[C@]3(C)[C@]2(C(=O)CO)O1 (some centres unmarked) [Budesonide, budesonide]
- AUC(0-inf) ([1]; average of 6 rats, read-out: AUCinf (hr * ng/mL), Avg): 148 ng·h/mL
- clearance ([1]; average of 6 rats, read-out: Cl (mL/hr/kg), Avg (converted)): 3480 mL/h/kg
- Cmax ([1]; average of 6 rats, read-out: Cmax (ng/mL), Avg): 286 ng/mL
- Vd ([1]; average of 6 rats, read-out: Vz (mL/kg), Avg): 3740 mL/kg
- half-life ([1]; average of 6 rats, read-out: t1/2 (hr), Avg (converted)): 0.75 h
- AUC(0-inf) ([1]; individual animals, read-out: AUCinf (hr * ng/mL), individual rats): 159 ng·h/mL
- clearance ([1]; individual animals, read-out: Cl (mL/hr/kg), individual rats (converted)): 3140 mL/h/kg
- Cmax ([1]; individual animals, read-out: Cmax (ng/mL), individual rats): 324 ng/mL
- Vd ([1]; individual animals, read-out: Vz (mL/kg), individual rats): 3310 mL/kg
- half-life ([1]; individual animals, read-out: t1/2 (hr), individual rats (converted)): 0.73 h
- Cl (mL/hr/kg), individual rats ([1]; individual animals): 3966 mL/h/kg and 4611 mL/h/kg and 3104 mL/h/kg and 3151 mL/h/kg and 2892 mL/h/kg
- Cmax (ng/mL), individual rats ([1]; individual animals): 241 ng/mL and 226 ng/mL and 337 ng/mL and 306 ng/mL and 279 ng/mL
- Vz (mL/kg), individual rats ([1]; individual animals): 4291 mL/kg and 4937 mL/kg and 3104 mL/kg and 3191 mL/kg and 3627 mL/kg
- intestinal score decrease towards normal (indomethacin-induced IBD; 0.02 mg/kg intravenous daily): 52%
- small intestine weight decrease toward normal (indomethacin-induced IBD; 0.02 mg/kg intravenous daily): 52%
- intestinal score decrease towards normal (indomethacin-induced IBD; 0.2 mg/kg intravenous daily): 53%
- small intestine weight decrease toward normal (indomethacin-induced IBD; 0.2 mg/kg intravenous daily): 53%
- intestinal score decrease towards normal (indomethacin-induced IBD; 2 mg/kg intravenous daily): 59%
- small intestine weight decrease toward normal (indomethacin-induced IBD; 2 mg/kg intravenous daily): 59%

SMILES: C[C@@H]1C[C@H]2[C@@H]3CCC4=CC(=O)C=C[C@]4(C)[C@@]3(Cl)[C@@H](O)C[C@]2(C)[C@@]1(OC(=O)c1ccco1)C(=O)CCl [MOM, Mometasone Furoate]
- [MOM] ([2]; 10% wt BCD in PBS): 93.5 µg/mL
- [MOM] ([2]; […] wt BCD in PBS): 33.42 µg/mL

SMILES: CC(C)C(=O)OCC(=O)[C@@]12O[C@H](C3CCCCC3)O[C@@H]1C[C@H]1[C@@H]3CCC4=CC(=O)C=C[C@]4(C)[C@H]3[C@@H](O)C[C@@]12C [ciclesonide]
- [ciclesonide] ([2]; 10% wt BCD): 133 µg/mL
- [ciclesonide] ([2]; […] wt BCD): 17.58 µg/mL
